# Patent publication US12029732B2, “Treatment of vascular and lymphatic disease” (priority 2019, dated 2024)
# Entries after “also recorded” stand apart in the source; their conditions may differ.
# Tests used:
# [1] = test system: RP27M2 (Rpl27a^low/+:Mdm2^+/−) mice; test: PFT / c-PFT treatment of pregnant mice carrying RP27M2 embryos (high-p53 lymphedema model); assay type: in vivo, mouse; settings: for ratio of mutant pups at birth: RP27M2; for ratio of mutant pups at birth / edema: mothers treated daily from E11.5; for cutaneous hemorrhaging / embryonic (in utero) lethality: RP27M2 mutants, mothers treated daily from E11.5 until delivery; for edema: RP27M2 pups
# Protocol: (§1) All mice were maintained on a C57BL/6J background. For timed pregnancies, the first day of observed plug were recorded as day 0.5 post-coitum or embryonic day 0.5 (E0.5). Mice haploinsufficient for the ribosomal protein L27a (Rpl27^low/+) are crossed with Mdm2 or Mdm4 heterozygous mice (Mdm2^+/− or Mdm4^+/−) to generate WT, Rpl27^low/+, Mdm2^+/−, Rpl27^low/+:Mdm2^+/− (RP27M2), Mdm4^+/−, and Rpl27^low/+:Mdm4^+/− mice (RP27M4). To generate mice on a p53-deficient background, we crossed Rpl27^low/+ mice to Mdm2^−/−:p53^−/− or Mdm4^−/−:p53^−/− mice. We therefore obtained RP27M2:p53^+/− mice and RP27M4:p53^+/− mice (FIG. 8). Genotypes were determined by PCR analysis of extracted DNA from tails using published primer sets for Mdm2, Mdm4, and p53. The sex of embryos was determined by detection of Sry and Raspn genes by PCR. Animal care and euthanasia guidelines of the Colorado Institutional Animal Care and Use Committee were followed for all animal work.
# (§2) A 10 mM stock of Pifithrin-α (PFT-α, Selleck Bio, cat. S2929) was diluted 1:10 in 1×PBS, protected from light and used instantly. Pregnant mice were injected intraperitoneally from E11.5 to E16.5 and subcutaneously from E17.5 until delivery at 2.2 mg/kg of weight. Animal were monitored daily post-treatment and weights were recorded after delivery.
# (§3) Tissues were fixed in 4% neutral buffered paraformaldehyde, processed, and embedded in paraffin by the UCD Research Histology core. Sagittal sections (5 μm) were subjected to immunofluorescence staining (IF) as previously described and according to the manufacturer's recommendations. The primary antibodies used for IF were monoclonal mouse Prox-1 (1:50, P21936, Thermofisher Scientific, Massachusetts, USA), monoclonal rabbit Lyve-1 (1:100, ab14917, Abcam Inc., California, USA), polyclonal rabbit Ki-67 (1:1000, VP-K451, Vector Laboratories, California, USA) and mouse monoclonal p21 (1:100, sc-6246, Santa Cruz Biotechnology, California, USA) antibodies. We used anti-rabbit or anti-mouse Alexa Fluor 594 or Alexa Fluor 488 conjugated secondary antibodies (1:1000, Invitrogen, California, USA), captured the images on a Nikon Eclipse 90i, and quantified using the ImageJ software. Pediatric lymphatic edema was categorized using the ISSVA Classification of Vascular Anomalies and confirmed by PdPn (D2-40 antibody, Ventana or RnD Systems AF3670) staining. IHC for p53 on human tissues were performed using the D-07 antibody (Ventana) on automated strainers (Ventana Ultra) following the manufacturer's recommendations and Clinical Laboratory Improvement Amendments (CLIA) certified procedures. For the visualization of the three-dimensional lymphatic vasculature, murine skin were fixed in 4% Paraformaldehyde (PFA) for 2-4 hours at room temperature for whole mount staining. Tissues were then subjected to procedures as published. H&E was performed following Harris protocols for staining.
# (§4) To confirm the contribution of p53 overexpression to lymphedema, a pharmacological approach was used by testing a known reversible p53 negative modulator, Pifithrin-α (PFT). For this, time mating of Rpl27^low/+ mice was set up with Mdm2^+/−, or Mdm4^+/−, mice. Females carrying both models were injected intraperitoneally (IP) daily from E11.5 to […] and their weight gain was recorded until delivery. […] 100% of PFT-RP27M4 mice died did shortly after birth. […] It was speculated that the extent of phenotypic rescue at the low PFT dose used may be determined by the severity of the presentation. Therefore, increasing the amount of PFT given to the RP27M4 carrying mothers may allow for RP27M4 pups to survive.
# [2] = test system: RP27M4 (Rpl27a^low/+:Mdm4^+/−) mice; test: PFT / c-PFT treatment of pregnant mice carrying RP27M4 embryos (high-p53 lymphedema model); assay type: in vivo, mouse; settings: for ratio of mutant pups at birth: RP27M4; for ratio of mutant pups at birth / edema: mothers treated daily from E11.5; for cutaneous hemorrhaging / embryonic (in utero) lethality: RP27M4 mutants, mothers treated daily from E11.5 until delivery; for edema: RP27M4 pups
# Protocol: as §1, §2, §3, §4
# [3] = DMSO; cited from earlier work
structure (smiles),measurement,setting,value
"Br.Cc1ccc(C(=O)Cn2c3c(sc2=N)CCCC3)cc1 [PFT, 2-[2-Imino-4,5,6,7-tetrahydrobenzothiazol-3-yl]-1-p-tolylethanone hydrobromide]",appearance of treated pups compared with WT,[1]; PFT-RP27M2 mice,indistinguishable from WT
same,pups survived until at least 10 days old,"[1]; PFT-RP27M2 mice, 2.2 mg/kg to mothers",100%
same,"subcutaneous edema, H&E staining of dorsal skin","[1]; RP27M2, P0 skin",no evident subcutaneous edema
same,"lymphatic vessel size, Lyve-1 staining of skin","[1]; RP27M2, postnatal day 0 (P0)",reverted to a normal size
same,ratio of mutant pups at birth,[1]; hydrobromide,born following a Mendelian ratio; also recorded: born at a Mendelian ratio
same,ratio of mutant pups at birth,"[1]; listed as PFT-a, hydrobromide",born at Mendelian ratio
same,cutaneous hemorrhaging,[1]; hydrobromide,reversed symptoms of edema and hemorrhaging; also recorded: eliminates visible skin hemorrhaging; also recorded: no signs of hemorrhaging
same,embryonic (in utero) lethality,[1]; hydrobromide,rescued; also recorded: rescues in utero lethality
same,cutaneous hemorrhaging,"[1]; listed as PFT-a, hydrobromide",do not exhibit cutaneous hemorrhaging
same,edema,[1]; hydrobromide,reversed symptoms of edema and hemorrhaging
same,edema,"[1]; listed as PFT-a, hydrobromide",do not exhibit cutaneous hemorrhaging and severe edema
same,pups died shortly after birth,"[2]; PFT-RP27M4 mice, 2.2 mg/kg to mothers",100%
same,"subcutaneous edema, H&E staining of dorsal skin","[2]; RP27M4, P0 skin",no evident subcutaneous edema
same,"lymphatic vessel size, Lyve-1 staining of skin","[2]; RP27M4, postnatal day 0 (P0)",reverted to a normal size
same,ratio of mutant pups at birth,[2]; hydrobromide,born following a Mendelian ratio; also recorded: born at a Mendelian ratio
same,ratio of mutant pups at birth,"[2]; listed as PFT-a, hydrobromide",born at Mendelian ratio
same,cutaneous hemorrhaging,[2]; hydrobromide,reversed symptoms of edema and hemorrhaging; also recorded: eliminates visible skin hemorrhaging; also recorded: no signs of hemorrhaging
same,embryonic (in utero) lethality,[2]; hydrobromide,rescued; also recorded: rescues in utero lethality
same,cutaneous hemorrhaging,"[2]; listed as PFT-a, hydrobromide",do not exhibit cutaneous hemorrhaging
same,postnatal survival,[2]; RP27M4 pups after PFT treatment of mothers,did not survive past the first day
same,edema,[2]; hydrobromide,reversed symptoms of edema and hemorrhaging; also recorded: considerably reduced
same,edema,"[2]; listed as PFT-a, hydrobromide",do not exhibit cutaneous hemorrhaging and severe edema
same,solubility,[3],soluble
"Br.Cc1ccc(-c2cn3c4c(sc3n2)CCCC4)cc1 [c-PFT, Cyclic pifithrin-α hydrobromide]",cutaneous hemorrhaging,[1],eliminates visible skin hemorrhaging
same,embryonic (in utero) lethality,[1]; hydrobromide,rescued; also recorded: rescues in utero lethality
same,cutaneous hemorrhaging,[2],eliminates visible skin hemorrhaging
same,embryonic (in utero) lethality,[2]; hydrobromide,rescued; also recorded: rescues in utero lethality
